Laboratory results: patent US6737383B1, “Herbicidal oxadiazolidines” (priority 1999, dated 2004)

What was measured:
[1] = tested on: purple nutsedge; assay: Test B pre/postemergence purple nutsedge; assay type: in vivo, Cyperus rotundus
How it was run: (§1)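 Response is a visual 0-to-10 score relative to untreated plants, where 0 means no effect and 10 means complete control, taken twelve to sixteen days after application. Treatments went onto soil at planting and onto foliage of 1- to 4-leaf plants, using a surfactant-containing non-phytotoxic solvent.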

[2] = tested on: rice; assay: Test B flood test rice; assay type: in vivo, Oryza sativa
How it was run: (§2)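 Read-out is a visual response score from 0 (no effect) to 10 (complete control), assigned by comparison with untreated controls. Treatment was applied at the 2-leaf stage, and plants stayed in the greenhouse for twelve to sixteen days before scoring.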

[3] = tested on: blackgrass; assay: Test B pre/postemergence blackgrass; assay type: in vivo, Alopecurus myosuroides
How it was run: as §1

[4] = tested on: rape; assay: Test B pre/postemergence rape; assay type: in vivo, Brassica napus
How it was run: as §1

[5] = tested on: wild oat; assay: Test B pre/postemergence wild oat; assay type: in vivo, Avena fatua
How it was run: as §1

[6] = tested on: wheat; assay: Test B pre/postemergence wheat; assay type: in vivo, Triticum aestivum
How it was run: as §1

[7] = tested on: sugar beet; assay: Test B pre/postemergence sugar beet; assay type: in vivo, Beta vulgaris
How it was run: as §1

[8] = tested on: bedstraw; assay: Test B pre/postemergence bedstraw; assay type: in vivo, Galium aparine
How it was run: as §1

[9] = tested on: velvetleaf; assay: Test B pre/postemergence velvetleaf; assay type: in vivo, Abutilon theophrasti
How it was run: as §1

[10] = tested on: morningglory; assay: Test B pre/postemergence morningglory; assay type: in vivo, Ipomoea hederacea
How it was run: as §1

[11] = tested on: smallflower flatsedge; assay: Test B flood test smallflower flatsedge; assay type: in vivo, Cyperus difformis
How it was run: as §2

[12] = tested on: giant foxtail; assay: Test B pre/postemergence giant foxtail; assay type: in vivo, Setaria faberii
How it was run: as §1

[13] = tested on: soybean; assay: Test B pre/postemergence soybean; assay type: in vivo, Glycine max
How it was run: as §1

[14] = tested on: bamyardgrass; assay: Test B flood test barnyardgrass; assay type: in vivo, Echinochloa crus-galli
How it was run: as §2

[15] = tested on: pigweed; assay: Test B pre/postemergence pigweed; assay type: in vivo, Amaranthus retroflexus
How it was run: as §1

[16] = tested on: duck salad; assay: Test B flood test duck salad; assay type: in vivo, Heteranthera limosa
How it was run: as §2

[17] = Postemergence, Rate 62 g/ha, scale 0 to 10, 0 is no effect, 10 is complete control
[18] = Postemergence, Rate 250 g/ha, scale 0 to 10, 0 no effect, 10 complete control
[19] = Preemergence, Rate 62 g/ha, scale 0 to 10, 0 is no effect, 10 is complete control
[20] = Preemergence, Rate 125 g/ha, scale 0 to 10 (0 no effect, 10 complete control)
[21] = Preemergence, Rate 250 g/ha, scale of 0 to 10 where 0 is no effect and 10 is complete control
[22] = Preemergence, Rate 500 g/ha, scale 0 (no effect) to 10 (complete control)
[23] = Rate 125 g/ha, Postemergence, scale 0 to 10, 0 no effect, 10 complete control
[24] = Rate 500 g/ha, Postemergence, 0 to 10 scale (0 no effect, 10 complete control)
[25] = Rate 125 g/ha, Postemergence section (flood test species), scale 0 to 10, 0 no effect, 10 complete control
[26] = Rate 500 g/ha, Postemergence section of Table B, 0 to 10 scale (0 no effect, 10 complete control)
[27] = flood test, listed under Postemergence, Rate 250 g/ha, scale 0 to 10, 0 no effect, 10 complete control

CC(C)N(C(=O)n1oc(=O)n(-c2ccccc2)c1=O)c1ccc(F)cc1 [Compound 38]
Nutsedge plant response rating [1, 17]: 0 | Nutsedge plant response rating [1, 18]: 0 | Plant response rating, Nutsedge [1, 19]: 0 | Plant response rating, Nutsedge [1, 20]: 0 | Plant response rating, Nutsedge [1, 21]: 0 | Nutsedge plant response rating [1, 22]: 0 | Nutsedge plant response rating [1, 23]: 0 | Nutsedge plant response rating [1, 24]: 0 | Rice plant response rating [2, 17]: 0 | Rice plant response rating [2, 25]: 0 | Rice plant response rating [2, 26]: 0 | Rice plant response rating [2, 27]: 0 | Blackgrass plant response rating [3, 17]: 0 | Blackgrass plant response rating [3, 18]: 7 | Plant response rating, Blackgrass [3, 19]: 4 | Plant response rating, Blackgrass [3, 20]: 6 | Plant response rating, Blackgrass [3, 21]: 10 | Blackgrass plant response rating [3, 22]: 10 | Blackgrass plant response rating [3, 23]: 3 | Blackgrass plant response rating [3, 24]: 8 | Rape plant response rating [4, 17]: 0 | Rape plant response rating [4, 18]: 0 | Plant response rating, Rape [4, 19]: 0 | Plant response rating, Rape [4, 20]: 0 | Rape plant response rating [4, 22]: 0 | Rape plant response rating [4, 23]: 0 | Rape plant response rating [4, 24]: 0 | Wild oats plant response rating [5, 17]: 0 | Wild oats plant response rating [5, 18]: 0 | Plant response rating, Wild oats [5, 20]: 6 | Plant response rating, Wild oats [5, 21]: 6 | Wild oats plant response rating [5, 22]: 8 | Wild oats plant response rating [5, 23]: 0 | Wheat plant response rating [6, 17]: 0 | Wheat plant response rating [6, 18]: 0 | Plant response rating, Wheat [6, 19]: 0 | Plant response rating, Wheat [6, 20]: 0 | Plant response rating, Wheat [6, 21]: 0 | Wheat plant response rating [6, 22]: 0 | Wheat plant response rating [6, 23]: 0 | Sugarbeets plant response rating [7, 17]: 0 | Sugarbeets plant response rating [7, 18]: 0 | Plant response rating, Sugarbeets [7, 19]: 0 | Plant response rating, Sugarbeets [7, 20]: 0 | Plant response rating, Sugarbeets [7, 21]: 2 | Sugarbeets plant response rating [7, 22]: 6 | Sugarbeets plant response rating [7, 23]: 0 | Bedstraw plant response rating [8, 17]: 0 | Bedstraw plant response rating [8, 18]: 0 | Plant response rating, Bedstraw [8, 19]: 0 | Plant response rating, Bedstraw [8, 20]: 0 | Plant response rating, Bedstraw [8, 21]: 0 | Bedstraw plant response rating [8, 22]: 0 | Bedstraw plant response rating [8, 23]: 0 | Bedstraw plant response rating [8, 24]: 5 | Velvetleaf plant response rating [9, 17]: 0 | Velvetleaf plant response rating [9, 18]: 0 | Plant response rating, Velvetleaf [9, 19]: 0 | Plant response rating, Velvetleaf [9, 20]: 0 | Plant response rating, Velvetleaf [9, 21]: 0 | Velvetleaf plant response rating [9, 22]: 0 | Velvetleaf plant response rating [9, 23]: 0 | Morningglory plant response rating [10, 17]: 0 | Morningglory plant response rating [10, 18]: 1 | Plant response rating, Morningglory [10, 19]: 0 | Plant response rating, Morningglory [10, 20]: 0 | Plant response rating, Morningglory [10, 21]: 0 | Morningglory plant response rating [10, 22]: 0 | Morningglory plant response rating [10, 23]: 0 | Morningglory plant response rating [10, 24]: 10 | S. Flatsedge plant response rating [11, 17]: 0 | S. Flatsedge plant response rating [11, 25]: 0 | S. Flatsedge plant response rating [11, 27]: 0 | Giant foxtail plant response rating [12, 17]: 0 | Giant foxtail plant response rating [12, 18]: 4 | Plant response rating, Giant foxtail [12, 19]: 10 | Plant response rating, Giant foxtail [12, 20]: 10 | Plant response rating, Giant foxtail [12, 21]: 10 | Giant foxtail plant response rating [12, 22]: 10 | Giant foxtail plant response rating [12, 23]: 2 | Giant foxtail plant response rating [12, 24]: 8 | Soybean plant response rating [13, 17]: 0 | Soybean plant response rating [13, 18]: 0 | Plant response rating, Soybean [13, 19]: 0 | Plant response rating, Soybean [13, 20]: 0 | Plant response rating, Soybean [13, 21]: 0 | Soybean plant response rating [13, 22]: 2 | Soybean plant response rating [13, 23]: 0 | Barnyardgrass plant response rating [14, 17]: 0 | Barnyardgrass plant response rating [14, 25]: 0 | Barnyardgrass plant response rating [14, 26]: 0 | Barnyardgrass plant response rating [14, 27]: 0 | Redroot pigweed plant response rating [15, 17]: 0 | Redroot pigweed plant response rating [15, 18]: 0 | Plant response rating, Redroot pigweed [15, 19]: 2 | Plant response rating, Redroot pigweed [15, 20]: 10 | Plant response rating, Redroot pigweed [15, 21]: 10 | Redroot pigweed plant response rating [15, 22]: 10 | Redroot pigweed plant response rating [15, 23]: 0 | Redroot pigweed plant response rating [15, 24]: 0 | Ducksalad plant response rating [16, 17]: 0 | Ducksalad plant response rating [16, 26]: 0 | Ducksalad plant response rating [16, 27]: 0
